Assays:
[1] = molecular target: T1, CYP 1A1 (placental microsomes) (Homo sapiens, UniProt P04798); assay: Inhibition of placental microsome-catalyzed CYP oxidation; assay type: in vitro ADME; settings: CYP 1A1, substrate TFD024, placental microsomes
T1 construct: from tissue; host or cells: human placental microsomes
T1 sequence (P04798 1-512): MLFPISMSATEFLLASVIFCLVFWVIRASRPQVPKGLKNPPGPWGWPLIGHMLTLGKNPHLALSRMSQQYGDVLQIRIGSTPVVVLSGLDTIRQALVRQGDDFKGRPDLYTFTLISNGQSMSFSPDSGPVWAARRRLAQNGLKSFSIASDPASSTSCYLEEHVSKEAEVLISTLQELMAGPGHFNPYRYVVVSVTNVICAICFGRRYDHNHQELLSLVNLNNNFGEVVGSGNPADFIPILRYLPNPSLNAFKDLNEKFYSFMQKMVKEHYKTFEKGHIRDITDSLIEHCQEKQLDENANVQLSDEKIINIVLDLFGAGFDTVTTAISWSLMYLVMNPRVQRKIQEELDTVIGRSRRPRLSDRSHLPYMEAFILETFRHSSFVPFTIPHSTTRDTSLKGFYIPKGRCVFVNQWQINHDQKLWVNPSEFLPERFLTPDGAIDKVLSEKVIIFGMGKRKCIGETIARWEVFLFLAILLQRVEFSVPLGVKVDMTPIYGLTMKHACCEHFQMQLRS
Experimental: Incubations were carried out in a total volume of 100 µl of 100 mM Tris-HCl buffer (pH 7.4) in all black, flat-bottom Costar 96-well plates (Corning Incorporated, Corning, NY, USA). […] The samples were then preincubated at 37 °C for 10 min. The reactions were initiated by the addition of NADPH, and 0–10 µM 7-hydroxycoumarin was used as the standard. The fluorescent signal was measured with a Victor^2 1420 multilabel plate counter (PerkinElmer Lifesciences Wallac, Turku, Finland) with excitation and emission wavelengths of 405 and 460 nm, respectively. Fluorescence was monitored every 2 min for 40 min from where the concentration was calculated at the various time points. From these, oxidation rates (µM/min) and the relative remaining activity of the sample at different concentrations were calculated. The data were fit to sigmoidal dose-response curves with nonlinear regression, and IC50 values (the concentration at which the sample reduced the metabolism of the CYP substrate by 50%) were determined. […] This was analyzed using nonlinear equations in Graph Pad Prism, which produced IC50 values and its 95% confidence interval as the results.

[2] = test system: HepG2 cell line; set-up: method as in Etemad et al. (2015) [19]; settings: after 24 and 72 h, highest concentration tested; ref Etemad et al. (2015) [19]; read-out: HepG2 cellular toxicity IC50; cited from earlier work
[3] = Nitric oxide scavenging assay (nitroprusside, Griess reagent); assay type: biochemical; settings: 10 mM nitroprusside, 90 min, read-out: NO IC50
Experimental: Ethanol (10%) was used as a blank. Nitroprusside (50 μL) at a concentration of 10 mM was added to all the wells. The plates were incubated for 90 min at room temperature. After incubation, Griess reagent (100 μL) was added to all the wells, except for the color controls (negative controls) where instead distilled water was added. The absorbances were read at a wavelength of 546 nm using a BIO-TEK Power-Wave XS multiplate reader. From the absorbances an IC50 value was determined.

[4] = molecular target: T2, CYP 19A1 (aromatase) (Homo sapiens, UniProt P11511); assay: Aromatase inhibition assay, tritiated water release, placental microsomes; assay type: in vitro ADME; settings: CYP 19A1, substrate androstendione, verbascoside 4-500 µM
T2 construct: from tissue; host or cells: human placental microsomes
T2 sequence (P11511 1-503): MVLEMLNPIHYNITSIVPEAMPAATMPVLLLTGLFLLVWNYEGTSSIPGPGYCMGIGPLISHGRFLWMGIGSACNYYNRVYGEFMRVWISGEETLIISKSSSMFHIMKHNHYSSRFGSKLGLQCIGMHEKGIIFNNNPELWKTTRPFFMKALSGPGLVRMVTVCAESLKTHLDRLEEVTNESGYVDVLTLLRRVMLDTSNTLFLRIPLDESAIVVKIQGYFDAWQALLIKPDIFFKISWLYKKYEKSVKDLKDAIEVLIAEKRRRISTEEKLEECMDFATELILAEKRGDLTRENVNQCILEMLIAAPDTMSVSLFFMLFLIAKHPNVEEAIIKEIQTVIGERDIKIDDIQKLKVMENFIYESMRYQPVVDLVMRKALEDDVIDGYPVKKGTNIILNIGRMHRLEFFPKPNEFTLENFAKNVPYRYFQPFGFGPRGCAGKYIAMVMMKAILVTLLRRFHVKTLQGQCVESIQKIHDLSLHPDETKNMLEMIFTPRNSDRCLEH
Experimental: The relative remaining aromatase activity was calculated by measuring the tritiated water (^3H2O) formed from the aromatization of ^3H-Androst-4-ene,3,17-dione. […] Twenty percent NADPH regenerative system was added to initiate the reaction. Reactions were terminated by the addition of 33% trichloroacetic acid. The supernatant was investigated for tritiated water formed in a scintillation mixture (Optiphase Hisafe 2, Perkin Elmer) using a Wallac microbeta 1450 TriLux liquid scintillation and luminescence counter (PerkinElmer).

C[C@@H]1O[C@@H](O[C@@H]2[C@@H](O)[C@H](OCCc3ccc(O)c(O)c3)O[C@H](CO)[C@H]2OC(=O)/C=C/c2ccc(O)c(O)c2)[C@H](O)[C@H](O)[C@H]1O [Verbascoside]
Microsomal IC50 (µM) with 95% Confidence Intervals [1]: did not inhibit
IC50 ([1]; read-out: Microsomal IC50 (µM) with 95% Confidence Intervals): 350 µM
IC50 [2]: > 400 µM
IC50 [3]: 382 ± 4.15 µM
Microsomal IC50 (µM) with 95% Confidence Intervals [4]: No inhibition
Microsomal IC50 (µM) with 95% Confidence Intervals ([4]; listed as verbascoside): did not inhibit

— PMC6600574 (Molecules, 2019)
